Experimental data taken from US4130647A, “Methods for treating congestive heart failure and ischemic heart disease” (priority 1977, dated 1978).
Values joined by “and” are separate entries in the source; they are usually repeats but may differ in a detail not shown here. Equal entries are not always repeated. Where two headings read alike, the source gives them in different places.

Tests used:
[1] = system: enzyme phosphodiesterase in vascular smooth muscle; settings: cited from earlier work
[2] = system: forearm blood flow, vascular resistance and venous tone of patients with heart failure; settings: for forearm blood flow: control 1.29 ± 0.14; for forearm vascular resistance: control 88.9 ± 13.8
[3] = system: patients; set-up: species or system human; settings: in vivo
From the text: A finding of major importance which emerged from this investigation concerns the relative effects of prazosin on both venous and arteriolar smooth muscle. Prazosin is used clinically as an antihypertensive agent and the arterial dilating actions have been confirmed previously in experimental studies [Cohen, et al., J. Clin. Pharmacol., 10, 408 (1970)]. The important finding delineated herein that prazosin also effects substantial venodilation was of considerable physiologic significance since this unique action on systemic veins allows salutory extension of oral prazosin to the ambulatory therapy of chronic congestive heart failure. In this regard, in patients with normal left ventricular filling pressures, the prazosin-induced venous pooling and decline in cardiac return may lower ventricular preload to such a degree that the point of operation of the ventricle on the Frank-Starling relation is shifted substantially downward and to the left on its ascending limb with resultant decline in cardiac output despite lowered impedance. Furthermore, in the case of prazosin, the attenuation of reflex tachycardia by the agent in this circumstance of lowered stroke volume because of low preload, inhibits the principal regulatory mechanism which would otherwise compensate for the lowered stroke volume. […]

[4] = system: contractile state of the heart; settings: experimental studies; cited from earlier work
[5] = system: patients who had severe ischemic cardiomyopathy and heart failure; assay: Hemodynamic effects of oral prazosin in congestive heart failure (Example 1); type: in vivo, human; settings: for pressure.time per minute (index of myocardial oxygen demand): control 3293 ± 191
From the text: The study comprised ten patients, six males and four females, mean age 51 years (range 46 to 62 years) who had severe ischemic cardiomyopathy and heart failure documented in each by cardiac catheterization and coronary arteriography. The duration of heart failure symptoms ranged from one to six years. All patients were receiving digoxin and diuretics, while seven were also taking long-acting nitrate preparations for the chronic unloading effects of these agents, Williams, et al., Am. J. Cardiol., 39, 84 (1977) and Amsterdam, et al., Circulation, 52 [Suppl. 2] 150 (1975).
Left ventriculography confirmed extensive abnormalities of segmental contraction in the appropriate area in each patient and the mean ejection fraction for this group of patients was 0.18 ± 0.03 (SEM). […] The remaining two patients were clinically functional class IV with resting dyspnea and were not able to undergo exercise evaluation.
Hemodynamics: All patients were studied in the post-absorptive state; and informed consent was obtained in each. All cardiac medications including digoxin, diuretics and long-acting nitrates were withheld for at least 24 hours prior to study.
Systemic arterial pressure was measured directly through an intra-arterial Teflon catheter placed into a brachial artery. Right atrial (RA), pulmonary artery (PA) and pulmonary artery wedge (PAW) pressures, and cardiac output (CO) by thermodilution were recorded with the Swan-Ganz catheter. Cardiac outputs were performed in triplicate (less than 10 percent variation) utilizing iced-water and computations were accomplished by a bed-side computer (Santa Barbara, Technology, Inc., Santa Barbara, Calif.).
Derived hemodynamic variables were calculated as follows: stroke work index (SWI) in gm-m/M^2 = SI × (AP-LVFP) × 0.0136 here SI = stroke index, AP = mean systemic arterial pressure and LVFP = left ventricular filling pressure either as the mean PAW or PA diastolic pressure, the particular method utilized for this variable remaining constant throughout the study for each patient; total systemic vascular resistance (TSVR) = 80 [(AP-RA)/CO] where 80 converts mm. Hg. to dynes sec. cm.^-5 and RA = mean RA pressure; pressure.time per minute (PTM) in mm. Hg. sec. per minute = AP × ET × HR where ET = left ventricular ejection time and HR = heart rate.

[6] = system: patients; settings: cited from earlier work
[7] = one hour post prazosin vs. control
[8] = 1 hour post prazosin, individual patients
[9] = 60 minutes post prazosin vs. control
[10] = 3 hours post prazosin, group mean
[11] = 3 hours post prazosin, individual patients
[12] = 6 hours post prazosin, group mean
[13] = 6 hours post prazosin, individual patients

What does the source list for COc1cc2nc(N3CCN(C(=O)c4ccco4)CC3)nc(N)c2cc1OC [prazosin]?
cyclic GMP ([1]; myocardium): increased levels of cyclic GMP; cyclic AMP ([1]; vascular smooth muscle): accumulation of cyclic AMP; inhibition of phosphodiesterase ([1]; vascular smooth muscle): inhibition of the enzyme phosphodiesterase; forearm vascular resistance, patients responding ([2]; 30 minutes post prazosin): lowered by prazosin in all patients; ratio of percent reduction of forearm vascular resistance to percent decline in forearm venous tone ([2]; 30 minutes post prazosin): 0.49; change in forearm venous tone ([2]; 30 minutes post prazosin vs. control): -69%; forearm blood flow ([2]; 30 minutes post prazosin): 1.71 ± 0.25 ml./100 gm./minute; venous tone in the forearm ([2]; 30 minutes post prazosin, control 58.9 ± 13.8): 18.5 ± 3.9 ml./mm. Hg.; forearm vascular resistance ([2]; 30 minutes post prazosin): 58.4 ± 6.1 mm. Hg./ml./100 gm./min.; ratio of percent reduction of forearm vascular resistance to percent decline in forearm venous tone ([2]; 1 hour post prazosin): 0.67; forearm blood flow ([2]; 60 minutes post prazosin): 1.95 ± 0.33 ml./100 gm./minute; persistence of increase in forearm blood flow ([2]; 6 hours): remained increased for the entire 6 hours; change in forearm vascular resistance [2, 7]: -47%; forearm vascular resistance ([2]; one hour post prazosin): 47.9 ± 5.8 mm. Hg./ml./100 gm./min.; persistence of decline in forearm vascular resistance ([2]; six hours): persisted for the six hour study period; persistence of lowering of forearm venous tone ([2]; six hours): remained lowered at this level for the entire six hour observation period; syncope or other untoward effects [3]: no syncope or other untoward effects occurred; effects on the contractile state of the heart [4]: neither direct nor sympathetically mediated indirect effects; cardiac index, patients responding ([5]; 30 minutes post prazosin): increased in each patient; left ventricular filling pressure, patients responding ([5]; 30 minutes post prazosin): lowered in all 10 patients; Cardiac Index ([5]; 30 minutes post prazosin, group mean, control 2.07 ± 0.12): 2.62 ± 0.11 L/min./M^2; total systemic vascular resistance ([5]; 30 minutes post prazosin, group mean, control 2074 ± 183): 1448 ± 139 dynes sec. cm.^-5; stroke work index, direction of change ([5]; 30 minutes post prazosin, p<0.01): increased; Mean Systemic Arterial Pressure ([5]; 30 minutes post prazosin, control 95.3 ± 5.3): 86.1 ± 5.8 mm. Hg.; pressure.time per minute (index of myocardial oxygen demand) ([5]; 30 minutes post prazosin): 2992 ± 208 mm. Hg. sec. per minute; CI (cardiac index), mean ([5]; 1 hour (60 minutes) post prazosin, group mean, control 2.07): 2.94 ± 0.10 L/min./M^2 and 2.9 L/min./M^2; SWI (stroke work index), mean ([5]; 1 hour (60 minutes) post prazosin, group mean, control 23.3): 31.4 ± 5.1 gm.-m/M^2 and 31.4 gm.-m/M^2; LVFP (left ventricular filling pressure), mean ([5]; 1 hour (60 minutes) post prazosin, group mean, control 30.2): 17.7 ± 1.4 mm. Hg. and 17.7 mm. Hg.; HR (heart rate), mean ([5]; 1 hour post prazosin, group mean, control 84): 84 beats per minute; AP (mean systemic arterial pressure), mean ([5]; 1 hour post prazosin, group mean, control 95.3): 77.8 mm. Hg.; TSVR (total systemic vascular resistance), mean ([5]; 1 hour post prazosin, group mean, control 2074): 1156 ± 83 dynes sec. cm.^-5 and 1156 dynes sec. cm.^-5; AP (mean systemic arterial pressure) [5, 8]: 86 mm. Hg. and 62 mm. Hg. and 92 mm. Hg. and 69 mm. Hg. and 91 mm. Hg. and 77 mm. Hg. and 67 mm. Hg. and 64 mm. Hg. and 60 mm. Hg. and 110 mm. Hg.; CI (cardiac index) [5, 8]: 2.9 L/min./M^2 and 2.8 L/min./M^2 and 3.2 L/min./M^2 and 2.6 L/min./M^2 and 3.1 L/min./M^2 and 2.5 L/min./M^2 and 3.5 L/min./M^2; LVFP (left ventricular filling pressure) [5, 8]: 16 mm. Hg. and 19 mm. Hg. and 25 mm. Hg. and 11 mm. Hg. and 12 mm. Hg. and 18 mm. Hg. and 24 mm. Hg. and 21 mm. Hg. and 20 mm. Hg. and 13 mm. Hg.; SWI (stroke work index) [5, 8]: 41 gm.-m/M^2 and 23 gm.-m/M^2 and 34 gm.-m/M^2 and 24 gm.-m/M^2 and 44 gm.-m/M^2 and 29 gm.-m/M^2 and 17 gm.-m/M^2 and 15 gm.-m/M^2 and 20 gm.-m/M^2 and 68 gm.-m/M^2; TSVR (total systemic vascular resistance) [5, 8]: 1445 dynes sec. cm.^-5 and 1038 dynes sec. cm.^-5 and 1067 dynes sec. cm.^-5 and 920 dynes sec. cm.^-5 and 1549 dynes sec. cm.^-5 and 1011 dynes sec. cm.^-5 and 1477 dynes sec. cm.^-5 and 908 dynes sec. cm.^-5 and 836 dynes sec. cm.^-5 and 1304 dynes sec. cm.^-5; HR (heart rate) ([5]; 1 hour post prazosin, oral 2 to 5 mg (one patient 7 mg), individual patients 1-10): 66 beats per minute and 72 beats per minute and 90 beats per minute and 105 beats per minute and 62 beats per minute and 87 beats per minute and 86 beats per minute and 102 beats per minute; change in cardiac index (maximal increase) [5, 9]: +42%; change in left ventricular filling pressure [5, 9]: -41%; change in stroke work index (peak) [5, 9]: +35%; AP (mean systemic arterial pressure), mean [5, 10]: 78.6 mm. Hg.; CI (cardiac index), mean [5, 10]: 2.7 L/min./M^2; HR (heart rate), mean [5, 10]: 81 beats per minute; LVFP (left ventricular filling pressure), mean [5, 10]: 17.9 mm. Hg.; SWI (stroke work index), mean [5, 10]: 28.7 gm.-m/M^2; TSVR (total systemic vascular resistance), mean [5, 10]: 1303 dynes sec. cm.^-5; AP (mean systemic arterial pressure) [5, 11]: 79 mm. Hg. and 67 mm. Hg. and 90 mm. Hg. and 72 mm. Hg. and 80 mm. Hg. and 77 mm. Hg. and 68 mm. Hg. and 69 mm. Hg. and 104 mm. Hg.; CI (cardiac index) [5, 11]: 3.1 L/min./M^2 and 2.4 L/min./M^2 and 2.0 L/min./M^2 and 2.9 L/min./M^2 and 2.3 L/min./M^2 and 2.8 L/min./M^2 and 3.3 L/min./M^2 and 2.5 L/min./M^2; HR (heart rate) [5, 11]: 66 beats per minute and 70 beats per minute and 85 beats per minute and 100 beats per minute and 61 beats per minute and 72 beats per minute and 112 beats per minute and 80 beats per minute and 99 beats per minute; LVFP (left ventricular filling pressure) [5, 11]: 21 mm. Hg. and 23 mm. Hg. and 14 mm. Hg. and 11 mm. Hg. and 20 mm. Hg. and 22 mm. Hg. and 25 mm. Hg. and 18 mm. Hg. and 16 mm. Hg.; SWI (stroke work index) [5, 11]: 45 gm.-m/M^2 and 25 gm.-m/M^2 and 32 gm.-m/M^2 and 22 gm.-m/M^2 and 36 gm.-m/M^2 and 26 gm.-m/M^2 and 16 gm.-m/M^2 and 17 gm.-m/M^2 and 24 gm.-m/M^2 and 44 gm.-m/M^2; TSVR (total systemic vascular resistance) [5, 11]: 1222 dynes sec. cm.^-5 and 1307 dynes sec. cm.^-5 and 1125 dynes sec. cm.^-5 and 1069 dynes sec. cm.^-5 and 1484 dynes sec. cm.^-5 and 1294 dynes sec. cm.^-5 and 1850 dynes sec. cm.^-5 and 1135 dynes sec. cm.^-5 and 840 dynes sec. cm.^-5 and 1708 dynes sec. cm.^-5; persistence of reduction of pressure.time per minute ([5]; 6 hours): remained diminished for 6 hours; persistence of reduction of total systemic vascular resistance ([5]; 6 hours): significant (p<0.001) reduction in TSVR persisted for the entire 6 hour observation; AP (mean systemic arterial pressure), mean [5, 12]: 86.0 mm. Hg.; CI (cardiac index), mean [5, 12]: 2.4 L/min./M^2; HR (heart rate), mean [5, 12]: 75 beats per minute; LVFP (left ventricular filling pressure), mean [5, 12]: 19.7 mm. Hg.; SWI (stroke work index), mean [5, 12]: 29.9 gm.-m/M^2; TSVR (total systemic vascular resistance), mean [5, 12]: 1639 dynes sec. cm.^-5; AP (mean systemic arterial pressure) [5, 13]: 75 mm. Hg. and 80 mm. Hg. and 100 mm. Hg. and 102 mm. Hg. and 85 mm. Hg. and 74 mm. Hg.; CI (cardiac index) [5, 13]: 3.1 L/min./M^2 and 2.4 L/min./M^2 and 2.6 L/min./M^2 and 2.2 L/min./M^2 and 2.1 L/min./M^2; HR (heart rate) [5, 13]: 70 beats per minute and 72 beats per minute and 90 beats per minute and 56 beats per minute and 78 beats per minute and 86 beats per minute; LVFP (left ventricular filling pressure) [5, 13]: 13 mm. Hg. and 20 mm. Hg. and 23 mm. Hg. and 15 mm. Hg. and 18 mm. Hg. and 29 mm. Hg.; SWI (stroke work index) [5, 13]: 38 gm.-m/M^2 and 27 gm.-m/M^2 and 30 gm.-m/M^2 and 45 gm.-m/M^2 and 25 gm.-m/M^2 and 15 gm.-m/M^2; TSVR (total systemic vascular resistance; head TSVB) [5, 13]: 1158 dynes sec. cm.^-5 and 1550 dynes sec. cm.^-5 and 1455 dynes sec. cm.^-5 and 2066 dynes sec. cm.^-5 and 1638 dynes sec. cm.^-5 and 1973 dynes sec. cm.^-5; persistence of reduction of left ventricular filling pressure ([5]; entire study period): remained significantly (p<0.001) reduced throughout the entire study period; total systemic vascular resistance, patients responding ([5]; following prazosin): reduced in each patient; change in heart rate ([5]; following prazosin, control 84 ± 5.1 beats per minute, p>0.05): not statistically different; change in pressure.time per minute [5, 7]: -15%; change in total systemic vascular resistance [5, 7]: -44; pressure.time per minute (index of myocardial oxygen demand) ([5]; one hour post prazosin): 2793 ± 188 mm. Hg. sec. per minute; response in systemic blood pressure or left ventricular filling pressure ([5]; one patient, 2 hours following first dose): no alteration in systemic blood pressure or left ventricular filling pressure; persistence of increase in cardiac index ([5]; six hours vs. control): remaining significantly (p<0.01) elevated at six hours; persistence of lowering of mean systemic arterial pressure ([5]; throughout the observation period): remained significantly (p<0.001 or p<0.01) lowered throughout the observation period; change in mean systemic arterial pressure ([5]; two hours post prazosin vs. control): -20%; mean systemic arterial pressure, maximal hypotensive effect ([5]; two hours post prazosin, control 95.3 ± 5.3): 76.2 ± 3.8 mm. Hg.; tolerability in long-term administration ([6]; hypertensive patients): relatively well tolerated; excessive hypotension ([6]; in vivo): reported to occasionally occur; serologic side effects resembling hydralazine-induced lupus erythematosus ([6]; in vivo): no reports of serologic side effects; febrile polyarthritis ([6]; patient receiving prazosin for hypertension): reported in a single patient
